Data as given in publication PMC6155387, “Alkoxy and Enediyne Derivatives Containing 1,4-Benzoquinone Subunits—Synthesis and Antitumor Activity” (Molecules : A Journal of Synthetic Chemistry and Natural …, 2017).
Like-named read-outs stand apart in the source and are kept apart here.

What was measured:
Assay type in all cases: cell-based, human
C-32 = test: antiproliferative activity (WST-1), melanoma C-32; details: for IC50: melanoma C-32, 72 h, WST-1, Neg: negative in the concentration used, read-out: IC50 ± SD C-32; for SI (IC50 HFF-1/IC50 cancer line) C-32: selectivity index, HFF-1 vs C-32
Protocol: (§1) Biological activity of the tested compounds was assessed in vitro using cultured cell lines: melanoma C-32 (ATCC, Rockville, MD, USA), glioblastoma SNB-19 (DSMZ, Braunschweig, Germany), breast cancer MDA-MB-231 (ATCC, Rockville, MD, USA), and normal human fibroblasts derived from foreskin HFF-1 (ATCC, Rockville, MD, USA). Cell cultures were maintained using DMEM (Lonza, Basel, Switzerland) supplemented with 10% fetal bovine serum (FBS) (Biological Industries Cromwell, CT, USA) and a mixture of penicillin (10,000 U/mL) and streptomycin (10 mg/mL) (Lonza, Basel, Switzerland).
(§2) Cells were cultured using 96-well plates (Nunc Thermo Fisher Scientific, Waltham, MA, USA). Cells were seeded (5 × 10^3 cells/well) and incubated for 24 h in a standard incubator (37 °C, 5% CO2, relative humidity 95%). Subsequently, the medium was replaced with a fresh aliquot containing an examined compound (0.01; 0.05; 0.1; 0.5; 1; 5; 10; 50; 100 µg/mL), and cells were further incubated for another 72 h. Upon the conclusion of incubation, a CVDE test (Aniara, West Chester, OH, USA) using crystal violet was performed to assess the relative number of cells in the culture. A WST-1 test (Roche) was performed to examine the metabolic activity of cells and test for the presence of LDH in the medium (Roche Diagnostics GmbH, Mannheim, Germany), allowing for the assessment of the relative number of dead cells (i.e., cytotoxicity of the examined compound). UVM340 microplate readers (BIOGENET, Józefów, Poland) were used to read absorbance values.
(§3) WST-1 colorimetric assay for cell proliferation (Roche Diagnostics GmbH, Mannheim, Germany, reagent kit cat. 11644807001) is based on the viable cells’ ability to cleave the bright red-colored stable tetrazolium salt WST-1 to dark red soluble formazan. This bioreduction occurs under the influence of mitochondrial dehydrogenases (depends mostly on production of NAD(P)H in viable cells). The amount of formazan dye formed correlates directly with the number of metabolically active cells in the culture and is measured by absorbance (λ = 450 nm) following 1 h incubation of cells with the reagent.

SNB-19 = test: antiproliferative activity (WST-1), glioblastoma SNB-19; details: for IC50: glioblastoma SNB-19, 72 h, WST-1, Neg: negative in the concentration used, read-out: IC50 ± SD SNB-19; for SI (IC50 HFF-1/IC50 cancer line) SNB-19: selectivity index, HFF-1 vs SNB-19
Protocol: as §1, §2, §3

MDA-MB-231 = test: antiproliferative activity (WST-1), breast cancer MDA-MB-231; details: for IC50: read-out: IC50 ± SD MDA-MB-231; for SI (IC50 HFF-1/IC50 cancer line) MDA-MB-231: selectivity index, HFF-1 vs MDA-MB-231
Protocol: as §1, §2, §3

HFF-1 = test: antiproliferative activity (WST-1), normal fibroblasts HFF-1; details: normal fibroblasts HFF-1, 72 h, Neg: negative in the concentration used; for IC50: read-out: IC50 ± SD HFF-1
Protocol: as §1, §2, §3

[1] = Homo sapiens, breast cancer MDA-MB-231, 72 h, WST-1, Neg: negative in the concentration used
[2] = breast cancer MDA-MB-231, 72 h, WST-1, Neg: negative in the concentration used

Row | IC50 (C-32; Homo sapiens, C32) | IC50 (SNB-19; Homo sapiens) | IC50 (MDA-MB-231; [1]) | IC50 ± SD MDA-MB-231 (MDA-MB-231; [2]) | SMILES | SI (IC50 HFF-1/IC50 cancer line) C-32 (C-32) | SI (IC50 HFF-1/IC50 cancer line) SNB-19 (SNB-19) | IC50 (HFF-1; Homo sapiens) | SI (IC50 HFF-1/IC50 cancer line) MDA-MB-231 (MDA-MB-231) | IC50 (C-32) | IC50 (SNB-19) | IC50 (MDA-MB-231; [2]) | IC50 (HFF-1) | times more activity against the C-32 cell compared to cisplatin (C-32; C-32, ratio of IC50 vs cisplatin) | times more activity against the C-32 cell compared to (Z)-4-octen-2,6-diyn-1,8-diol (22) (C-32; C-32, ratio of IC50 vs compound 22) | IC50 ± SD HFF-1 (HFF-1)
1 | 10.5 ± 0.8 µM | 15.9 ± 0.3 µM | 23.3 ± 0.3 µM | – | Cc1ccc2c(n1)C(=O)C(Cl)=C(Cl)C2=O [Compound 3, 6,7-dichloro-2-methyl-5,8-quinolinedione] | 0.95 | 0.63 | 10 ± 1.4 µM | 0.43 | – | – | – | – | – | – | –
2 | 26.8 ± 1.9 µM | 19.8 ± 1.4 µM | 22.2 ± 1.4 µM | – | CCCOC1=C(Cl)C(=O)c2ccc(C)nc2C1=O [Compound 10, 6-Chloro-2-methyl-7-propoxy-5,8-quinolinedione] | 0.59 | 0.80 | 15.8 ± 1.8 µM | 0.71 | – | – | – | – | – | – | –
3 | 22.6 ± 0.8 µM | 19.9 ± 1.4 µM | 22.6 ± 2.3 µM | – | CCCOC1=C(OCCC)C(=O)c2ccccc2C1=O [Compound 13, 2,3-Dipropoxy-1,4-naphtoquinon] | 0.48 | 0.54 | 10.8 ± 0.5 µM | 0.48 | – | – | – | – | – | – | –
4 | 18.9 ± 1.7 µM | 16.6 ± 3 µM | 26.8 ± 1.2 µM | – | C=CCOC1=C(OCC=C)C(=O)c2nc(C)ccc2C1=O [Compound 20, 2-Methyl-6,7-di(2-propenoxy)-5,8-quinolinedione] | 0.03 | 0.04 | 0.6 ± 0.2 µM | 0.02 | – | – | – | – | – | – | –
5 | 10.6 ± 0.6 µM | 19.6 ± 1 µM | 17.9 ± 0.8 µM | – | C=CCOC1=C(OCC=C)C(=O)c2ccccc2C1=O [Compound 14, 2,3-di(2-Propenoxy)-1,4-naphthoquinon] | 0.42 | 0.22 | 4.4 ± 0.9 µM | 0.25 | – | – | – | – | – | – | –
6 | 4 ± 0.1 µM | 3.8 ± 0.1 µM | 6.9 ± 1.9 µM | – | C=CCOC1=C(Cl)C(=O)c2ccccc2C1=O [Compound 5, 2-Chloro-3-(2-propenoxy)-1,4-naphthoquinon] | 0.95 | 1.00 | 3.8 ± 0.8 µM | 0.55 | – | – | – | – | – | – | –
7 | 145 ± 4.8 µM | 186 ± 5 µM | 22.5 ± 2.4 µM | – | O=C1C(Cl)=C(OCC#CC=CC#CCO)C(=O)c2ccccc21 [Compound 23, 2-Chloro-3-(8-hydroxy-4-octen-2,6-diynyloxy)-1,4-naphthoquinon] | 0.67 | 0.52 | 97.6 ± 4 µM | – | – | – | – | – | – | – | –
8 | 16.8 ± 0.3 µM | 18.4 ± 1.7 µM | 1.4 ± 0.3 µM | – | CCCOC1=C(Cl)C(=O)c2ccccc2C1=O [Compound 4, 2-Chloro-3-propoxy-1,4-naphtoquinon] | 0.88 | 0.80 | 14.8 ± 0.9 µM | 10.57 | – | – | – | – | – | – | –
9 | 159 ± 4.6 µM | 250 ± 4.3 µM | – | Neg | OCC#C/C=C\C#CCO [Compound 22, (Z)-oct-4-ene-2,6-diyne-1,8-diol] | 1.64 | 1.04 | 260 ± 5.6 µM | 1.85 | – | – | – | – | – | – | –
10 | 21.1 ± 1.2 µM | 24.5 ± 1.1 µM | 23.2 ± 1.5 µM | – | C#CCOC1=C(OCC#C)C(=O)c2nc(C)ccc2C1=O [Compound 21, 2-Methyl-6,7-di(2-propynoxy)-5,8-qunolinedione] | 0.69 | 0.59 | 14.5 ± 2.6 µM | 0.63 | – | – | – | – | – | – | –
11 | – | – | – | – | N.N.[Cl][Pt][Cl] [cisplatin, reference compound] | 0.55 | 0.48 | – | – | 16.4 ± 1.2 µM | 18.9 ± 0.4 µM | 25.5 ± 0.2 µM | 9.1 ± 1.8 µM | – | – | –
12 | 168 ± 6.2 µM | 33.8 ± 1.3 µM | 24.6 ± 2.9 µM | – | C=CCOC1=C(Cl)C(=O)c2ccc(C)nc2C1=O [Compound 11, 6-Chloro-2-methyl-7-(2-propenoxy)-5,8-quinolinedione] | 0.12 | 0.59 | 20.1 ± 1.2 µM | 0.82 | – | – | – | – | – | – | –
13 | 131 ± 2.4 µM | 25.7 ± 1.4 µM | 71.3 ± 3.9 µM | – | CCCOC1=C(OCCC)C(=O)c2nc(C)ccc2C1=O [Compound 19, 2-Methyl-6,7-dipropoxy-5,8-quinolinedione] | 0.14 | 0.69 | 17.8 ± 1.8 µM | 0.25 | – | – | – | – | – | – | –
14 | 116 ± 2.9 µM | 169 ± 4.8 µM | 16.5 ± 1.9 µM | – | Cc1ccc2c(n1)C(=O)C(OCC#CC=CC#CCO)=C(Cl)C2=O [Compound 25, 6-Chloro-7-(8-hydroxy-4-octen-2,6-diynyloxy)-2-methyl-5,8-quinolinedione] | 0.23 | 0.16 | 27.1 ± 1.1 µM | – | – | – | – | – | – | – | –
15 | 3.1 ± 0.1 µM | 2.4 ± 0.1 µM | 110 ± 8.1 µM | – | O=C1C(Cl)=C(OCC#CC=CC#CCO)C(=O)c2ncccc21 [Compound 24, 6-Chloro-7-(8-hydroxy-4-octen-2,6-diynyloxy)-5,8-quinolinedione] | – | – | – | – | – | – | – | – | 5 times | 51 times | Neg
16 | 21.7 ± 0.6 µM | 18.6 ± 0.7 µM | – | – | C#CCOC1=C(OCC#C)C(=O)c2ccccc2C1=O [Compound 15, 2,3-di(2-Propynoxy)-1,4-naphthoquinon] | 0.62 | 0.73 | – | – | – | – | – | – | – | – | –
17 | 208 ± 4.6 µM | 19.5 ± 1 µM | 17.2 ± 2.5 µM | – | C#CCOC1=C(Cl)C(=O)c2ccc(C)nc2C1=O [Compound 12, 6-Chloro-2-methyl-7-(2-propynoxy)-5,8-quinolinedione] | 0.07 | 0.72 | 14 ± 2.4 µM | 0.81 | – | – | – | – | – | – | –

Row | SMILES | IC50 (C-32; Homo sapiens, C32) | IC50 (SNB-19; Homo sapiens) | IC50 (MDA-MB-231; [1]) | IC50 ± SD MDA-MB-231 (MDA-MB-231; [2]) | SI (IC50 HFF-1/IC50 cancer line) C-32 (C-32) | SI (IC50 HFF-1/IC50 cancer line) SNB-19 (SNB-19) | IC50 (HFF-1; Homo sapiens) | SI (IC50 HFF-1/IC50 cancer line) MDA-MB-231 (MDA-MB-231) | IC50 (C-32) | IC50 (SNB-19) | IC50 (MDA-MB-231; [2]) | IC50 (HFF-1) | times more activity against the C-32 cell compared to cisplatin (C-32; C-32, ratio of IC50 vs cisplatin) | times more activity against the C-32 cell compared to (Z)-4-octen-2,6-diyn-1,8-diol (22) (C-32; C-32, ratio of IC50 vs compound 22) | IC50 ± SD HFF-1 (HFF-1)
18 | O=C1C2=C(OCC#C/C=C\C#CCO2)C(=O)c2ncccc21 [Compound 27, 8-Octen-6,10-diynyl-1,4-dioxocyclododeca[2,3-g]-5,8-quinolinedione] | 48.4 ± 8.9 µM | 31.5 ± 2.5 µM | 25.1 ± 2.4 µM | – | 0.27 | 0.41 | 13 ± 3.4 µM | – | – | – | – | – | – | – | –
19 | Cc1ccc2c(n1)C(=O)C1=C(OCC#C/C=C\C#CCO1)C2=O [Compound 28, 8-Octen-6,10-diynyl-1,4-8-octen-6,10-diynyl-1,4-dioxocyclododeca[2,3-g]-2-methyl-5,8-quinolinedione] | 155 ± 3.7 µM | 157 ± 5.7 µM | 174 ± 5.9 µM | – | 0.18 | 0.18 | 27.8 ± 1.2 µM | – | – | – | – | – | – | – | –
20 | O=C1C2=C(OCC#C/C=C\C#CCO2)C(=O)c2ccccc21 [Compound 26, 8-Octen-6,10-diynyl-1,4-dioxocyclododeca[2,3-g]-1,4-naphthoquinon] | 30.3 ± 3.1 µM | 22.8 ± 1.4 µM | 2 ± 0.2 µM | – | 0.58 | 0.77 | 17.5 ± 1.3 µM | – | – | – | – | – | – | – | –
21 | O=C1C(Cl)=C(Cl)C(=O)c2ccccc21 [Compound 1, 2,3-Dichloro-1,4-naphtoquinon, reference compound] | 25 ± 0.3 µM | 26.6 ± 0.5 µM | 31.9 ± 2.7 µM | – | 0.62 | 0.59 | 15.6 ± 0.3 µM | 0.49 | – | – | – | – | – | – | –
